DBAASP
Values after ≈ are worked out from the molar mass of the structure shown. Values joined by “and” are separate entries in the source; they are usually repeats but may differ in a detail not shown here. Identical values can stand only once.

What was measured:
Assay in all cases: ≥ marks a high value that may be exact or a test limit, other limits are often not marked, values filed in µg/mL are converted to µM
[1] = system: Aspergillus flavus KCTC 9471
[2] = system: Aspergillus fumigatus KCTC 6145
[3] = system: Bacillus subtilis
[4] = system: Botrytis cinerea
[5] = system: Candida albicans KCTC 7270
[6] = system: Escherichia coli O157:H7 ATCC 43895
[7] = system: Escherichia coli
[8] = system: Fusarium verticillioides
[9] = system: Listeria monocytogenes KCTC 3710
[10] = system: Proteus vulgaris
[11] = system: Pseudomonas aeruginosa
[12] = system: Saccharomyces cerevisiae
[13] = system: Salmonella typhimurium
[14] = system: Staphylococcus aureus
[15] = system: Staphylococcus epidermidis
[16] = system: Trichosporon beigelii
[17] = system: Bacillus subtilis KCTC 1998
[18] = system: Escherichia coli ATCC 25922
[19] = system: Pseudomonas aeruginosa ATCC 15692
[20] = system: Staphylococcus aureus ATCC 25923
[21] = system: Bacillus cereus ATCC 14579
[22] = system: Bacillus subtilis ATCC 23857
[23] = system: Candida albicans ATCC 90028
[24] = system: Cryptococcus neoformans ATCC 28957
[25] = system: Fusarium oxysporum f.sp. vasinfectum
[26] = system: Fusarium oxysporum
[27] = system: Fusarium solani
[28] = system: Pectobacterium carotovorum
[29] = system: Pseudomonas aeruginosa ATCC 27853
[30] = system: Pseudomonas syringae pv. tabaci
[31] = system: Ramulariopsis gossypii
[32] = system: Rhizoctonia solani
[33] = system: Trichoderma asperellum
[34] = system: Xanthomonas campestris pv. citri
[35] = system: Escherichia coli ATCC 11775
[36] = system: Escherichia coli ATCC 35218
[37] = system: Salmonella enterica subsp. enterica serovar Typhi Vi+
[38] = system: Salmonella enterica subsp. enterica serovar Typhimurium ATCC 14028

With `CC[C@H](C)[C@H](NC(=O)[C@H](CCCCN)NC(=O)[C@H](CO)NC(=O)[C@H](Cc1ccccc1)NC(=O)[C@H](CC(C)C)NC(=O)[C@H](CCCCN)NC(=O)[C@H](CCC(=O)O)NC(=O)[C@H](CC(C)C)NC(=O)[C@H](CCCN=C(N)N)NC(=O)[C@H](CCCCN)NC(=O)[C@H](Cc1ccccc1)NC(=O)[C@@H](NC(=O)[C@H](CCCCN)NC(=O)[C@H](CCCCN)NC(=O)[C@H](C)N)C(C)C)C(=O)N[C@@H](Cc1c[nH]c2ccccc12)C(=O)N[C@@H](CC(N)=O)C(=O)N[C@@H](CC(=O)O)C(=O)N[C@@H](CCCCN)C(N)=O` [AKKVFKRLEKLFSKIWNDK] the MIC [1] was ≥ 50 µM, the MIC [2] was ≥ 50 µM and the MIC [3] was 1.56 µM (≈ 3.71 µg/mL). For the same compound, the MIC [4] was 6.25 µM (≈ 14.9 µg/mL), the MIC [5] was 25 µM (≈ 59.4 µg/mL) and the MIC [6] was 6.25 µM (≈ 14.9 µg/mL). The MIC [7] was 3.13 µM (≈ 7.44 µg/mL), the MIC [8] was 25 µM (≈ 59.4 µg/mL) and the MIC [9] was 1.56 µM (≈ 3.71 µg/mL). For the same compound, the MIC [10] was 3.13 µM (≈ 7.44 µg/mL), the MIC [11] was 6.25 µM (≈ 14.9 µg/mL) and the MIC [12] was 25 µM (≈ 59.4 µg/mL). For the same compound, the MIC [13] was 0.78 µM (≈ 1.85 µg/mL), the MIC [14] was 6.25 µM (≈ 14.9 µg/mL) and the MIC [15] was 3.13 µM (≈ 7.44 µg/mL). It also gave an MIC [16] of 1.56 µM (≈ 3.71 µg/mL).
`CC[C@H](C)[C@H](NC(=O)[C@H](CCCCN)NC(=O)[C@H](CO)NC(=O)[C@H](Cc1ccccc1)NC(=O)[C@H](CC(C)C)NC(=O)[C@H](CCCCN)NC(=O)[C@H](CCC(=O)O)NC(=O)[C@H](CC(C)C)NC(=O)[C@H](CCCN=C(N)N)NC(=O)[C@H](CCCCN)NC(=O)[C@H](Cc1ccccc1)NC(=O)[C@@H](NC(=O)[C@H](CCCCN)NC(=O)[C@H](CCCCN)NC(=O)[C@H](C)N)C(C)C)C(=O)N[C@@H](Cc1c[nH]c2ccccc12)C(=O)N[C@@H](CC(N)=O)C(=O)N[C@@H](Cc1c[nH]c2ccccc12)C(=O)N[C@@H](CCCCN)C(N)=O` [AKKVFKRLEKLFSKIWNWK] was tested, and the MIC [1] was 25 µM (≈ 61.2 µg/mL), the MIC [2] was 25 µM (≈ 61.2 µg/mL) and the MIC [17] was 2 µM (≈ 4.9 µg/mL). The MIC [3] was 1.56 µM (≈ 3.82 µg/mL), the MIC [4] was 3.13 µM (≈ 7.67 µg/mL) and the MIC [5] was 12.5 µM (≈ 30.6 µg/mL). The MIC [18] was 2 µM (≈ 4.9 µg/mL), the MIC [6] was 3.13 µM (≈ 7.67 µg/mL) and the MIC [7] was 1.56 µM (≈ 3.82 µg/mL). The MIC [8] was 12.5 µM (≈ 30.6 µg/mL), the MIC [9] was 0.39 µM (≈ 0.955 µg/mL) and the MIC [10] was 3.13 µM (≈ 7.67 µg/mL). For the same compound, the MIC [19] was 2 µM (≈ 4.9 µg/mL), the MIC [11] was 3.13 µM (≈ 7.67 µg/mL) and the MIC [12] was 25 µM (≈ 61.2 µg/mL). For the same compound, the MIC [13] was 0.39 µM (≈ 0.955 µg/mL), the MIC [20] was 2 µM (≈ 4.9 µg/mL) and the MIC [14] was 1.56 µM and 3.13 µM. The MIC [15] was 3.13 µM (≈ 7.67 µg/mL) and the MIC [16] was 1.56 µM (≈ 3.82 µg/mL).
`CSCC[C@H](NC(=O)[C@H](CCCCN)NC(=O)[C@H](Cc1ccc(O)cc1)NC(=O)[C@H](C)NC(=O)[C@H](CCC(=O)O)NC(=O)[C@H](CC(C)C)NC(=O)[C@H](CC(C)C)NC(=O)[C@H](CCCN=C(N)N)NC(=O)[C@H](CC(N)=O)NC(=O)[C@H](C)N)C(=O)N[C@@H](CC(C)C)C(=O)N[C@@H](CC(C)C)C(=O)N[C@@H](CCCCN)C(=O)N[C@@H](Cc1ccccc1)C(=O)N[C@@H](CC(C)C)C(=O)NCC(=O)N[C@@H](CC(N)=O)C(=O)N[C@@H](CC(C)C)C(=O)N[C@@H](CCCN=C(N)N)C(N)=O` [ANRLLEAYKMLLKFLGNLR] showed an MIC [21] of 4 µM (≈ 9.05 µg/mL), an MIC [22] of 1 µM (≈ 2.26 µg/mL) and an MIC [23] of 4 µM (≈ 9.05 µg/mL). It also gave an MIC [24] of 2.67 µM (≈ 6.04 µg/mL), an MIC [18] of 4 µM (≈ 9.05 µg/mL) and an MIC [25] of 1.67 µM (≈ 3.78 µg/mL). For the same compound, the MIC [26] was 4 µM (≈ 9.05 µg/mL), the MIC [27] was 2 µM (≈ 4.53 µg/mL) and the MIC [28] was 1 µM (≈ 2.26 µg/mL). The MIC [29] was 32 µM (≈ 72.4 µg/mL), the MIC [30] was 2 µM (≈ 4.53 µg/mL) and the MIC [31] was 2 µM (≈ 4.53 µg/mL). The MIC [32] was 4 µM (≈ 9.05 µg/mL), the MIC [20] was 1 µM (≈ 2.26 µg/mL) and the MIC [33] was 4 µM (≈ 9.05 µg/mL). For the same compound, the MIC [34] was 4 µM (≈ 9.05 µg/mL).
`CC[C@H](C)[C@H](NC(=O)[C@@H]1CCCN1C(=O)[C@H](CCCN=C(N)N)NC(=O)[C@@H]1CCCN1C(=O)[C@H](Cc1cnc[nH]1)NC(=O)[C@H](CO)NC(=O)[C@@H](NC(=O)[C@@H]1CCCN1C(=O)[C@H](CCCN=C(N)N)NC(=O)[C@@H]1CCCN1C(=O)[C@H](CO)NC(=O)[C@H](Cc1ccc(O)cc1)NC(=O)[C@@H]1CCCN1C(=O)[C@H](CCCCN)NC(=O)[C@@H]1CCCN1C(=O)[C@H](CCCCN)NC(=O)CN)[C@@H](C)O)C(=O)N[C@@H](CCCN=C(N)N)C(=O)N[C@H](C(=O)O)C(C)C` [GKPKPYSPRPTSHPRPIRV] showed an MIC [35] of 1.1 µM (≈ 2.39 µg/mL), an MIC [18] of 1.5 µM (≈ 3.26 µg/mL) and an MIC [36] of 0.6 µM (≈ 1.3 µg/mL). The MIC [37] was 4 µM (≈ 8.68 µg/mL) and the MIC [38] was 4 µM (≈ 8.68 µg/mL).
For `CC[C@H](C)[C@H](NC(=O)[C@@H]1CCCN1C(=O)[C@H](CCCCN)NC(=O)[C@@H]1CCCN1C(=O)[C@H](Cc1cnc[nH]1)NC(=O)[C@H](CO)NC(=O)[C@@H](NC(=O)[C@@H]1CCCN1C(=O)[C@H](CCCN=C(N)N)NC(=O)[C@@H]1CCCN1C(=O)[C@H](CO)NC(=O)[C@H](Cc1ccc(O)cc1)NC(=O)[C@@H]1CCCN1C(=O)[C@H](CCCN=C(N)N)NC(=O)[C@@H]1CCCN1C(=O)[C@H](CCCCN)NC(=O)CN)[C@@H](C)O)C(=O)N[C@@H](CCCN=C(N)N)C(=O)N[C@H](C(=O)O)C(C)C` [GKPRPYSPRPTSHPKPIRV], the MIC [35] was 6 µM (≈ 13 µg/mL), the MIC [18] was 7 µM (≈ 15.2 µg/mL) and the MIC [36] was 3.5 µM (≈ 7.6 µg/mL). It also gave an MIC [37] of 30 µM (≈ 65.1 µg/mL) and an MIC [38] of 25 µM (≈ 54.3 µg/mL).
`CSCC[C@H](NC(=O)[C@H](Cc1ccccc1)NC(=O)CNC(=O)[C@H](Cc1cnc[nH]1)NC(=O)[C@H](CC(C)C)NC(=O)[C@H](CO)NC(=O)CN)C(=O)N[C@@H](Cc1ccc(O)cc1)C(=O)N[C@@H](CCCCN)C(=O)N[C@@H](Cc1ccc(O)cc1)C(=O)N[C@@H](CC(C)C)C(=O)N[C@@H](CCCCN)C(=O)N[C@@H](CC(N)=O)C(=O)N[C@@H](CCSC)C(=O)N[C@H](C(=O)N[C@@H](CC(C)C)C(=O)N[C@H](C(=O)N[C@@H](CC(C)C)C(=O)N[C@@H](Cc1ccccc1)C(N)=O)[C@@H](C)O)C(C)C` [GSLHGFMYKYLKNMVLTLF] was tested, and the MIC [21] was ≥ 128 µM, the MIC [22] was 16 µM (≈ 36.2 µg/mL) and the MIC [23] was 16 µM (≈ 36.2 µg/mL). It also gave an MIC [24] of 16 µM (≈ 36.2 µg/mL), an MIC [18] of 64 µM (≈ 145 µg/mL) and an MIC [25] of 8 µM (≈ 18.1 µg/mL). The MIC [26] was 16 µM (≈ 36.2 µg/mL), the MIC [27] was ≥ 32 µM and the MIC [28] was ≥ 256 µM. For the same compound, the MIC [29] was 32 µM (≈ 72.4 µg/mL), the MIC [30] was 16 µM (≈ 36.2 µg/mL) and the MIC [31] was 4 µM (≈ 9.05 µg/mL). For the same compound, the MIC [20] was 16 µM (≈ 36.2 µg/mL), the MIC [33] was 8 µM (≈ 18.1 µg/mL) and the MIC [34] was ≥ 128 µM.
